Measurements published in publication PMC5640712 (Frontiers in Microbiology, 2017).

Columns and labels:
[1] = biological target: T1, Trypsin (porcine pancreas, Sigma-Aldrich) (Sus scrofa, UniProt P00761); assay: Trypsin inhibition (IC50 measurement); format: biochemical; conditions: at 1 h; 25°C; hydrolysis followed every 2 min for 1 h; inhibitor from 0 to 81.6 mM (so in the source); tested sample is purified Psp mixture, about 80% Psp A
T1 construct: purchased Sigma-Aldrich; host or cells: porcine pancreas
Description: Trypsin (porcine pancreas, Sigma-Aldrich) activity was measured at 25°C in a reaction mixture that contained from 0 to 81.6 mM leupeptin or pseudospumigin A and the hydrolysis was followed at every 2 min for 1 h, as described earlier (Liu et al., [2015]).

trypsin = conditions: commercial trypsin inhibitor; ref Aoyagi et al., 1969; Kurinov and Harrison, 1996; cited from earlier work
From the text: Figure 6 Time dependence of trypsin inhibition efficiency (IC50) of pseudospumigin A [•, Psp A (3) + other Psp variants], nostosin A (♦, Ns A) and spumigin E (□, Sp A, from Fewer et al., [2013]). […] Time dependent inhibition is ...

T1 sequence (P00761 9-231): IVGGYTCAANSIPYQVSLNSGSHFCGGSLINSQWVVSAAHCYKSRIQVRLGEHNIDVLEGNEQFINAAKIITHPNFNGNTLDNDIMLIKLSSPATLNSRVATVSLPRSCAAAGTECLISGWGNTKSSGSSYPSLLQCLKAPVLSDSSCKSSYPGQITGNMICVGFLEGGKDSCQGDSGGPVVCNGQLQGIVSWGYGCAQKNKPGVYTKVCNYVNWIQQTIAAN

For `CC[C@H](C)[C@H](NC(=O)[C@@H](CCc1ccc(O)cc1)NC(=O)[C@H](O)Cc1ccc(O)cc1)C(=O)NC(C=O)CCCNC(=N)N` (some centres unmarked) [Pseudospumigin A], which IC50 [1] is on record?
Its IC50 is 4.5 µM.

For Ac-Leu-Leu-Argininal [leupeptin], which “time dependence of trypsin interaction” value (trypsin) is on record?
The value was “interacts with trypsin without time dependency”.
